# Reference: patent US20260315461A1, “NEW 5H-PYRROLO[3,2-B:5,4-C']DIPYRIDINE DERIVATIVES AND 6,7,8,9-TETRAHYDRO-5H-PYRROLO[3,2-B:5,4-C']DIPYRIDINE USEFUL IN THE TREATMENT OF CANCER” (INSTITUT REGIONAL DU CANCER DE MONTPELLIER, priority 2023, published 2026)
# Where a name gives a salt, the structure may show the parent alone.
# How the values were obtained:
# Hpac/ZR75.1 cells = experiment: Cell survival, Sulforhodamine B assay (SRB assay), cancer cells not exhibiting recruitment of MDM2 to chromatin; type: cell-based
# Method: (§1) Cell survival after MDM2 inhibitor treatment (IC50) was determined using the Sulforhodamine B assay (SRB assay).
# (§2) Cells were seeded in 96-well plates (Sarsted) in complete DMEM medium as to obtain triplicates for each condition (5 000 cells/well). After 24 hours, serial dilutions of the indicated compounds were added to the cells. Then 48 hours later, cells were fixed by adding a 10% Trichloroacetic acid solution and stained with a 0,4% SRB solution in 1% acetic acid. Fixed SRB was finally dissolved in 10 mM Tris-HCl solution and 560 nm absorbance was read using a PHERAstar FSX plate reader.
# Chromatin-MDM2 = target: T1, Chromatin-MDM2 (Homo sapiens, UniProt Q00987); experiment: MDM2 degradation by western blot and immunofluorescence, chromatin-bound MDM2 (IB111 cells dependent on C-MDM2); type: cell-based; conditions: IB111 (presence of C-MDM2), degradation efficacy; for Dmax: human
# T1 construct: endogenous in cells; host or cells: IB111
# T1 sequence (Q00987 whole entry): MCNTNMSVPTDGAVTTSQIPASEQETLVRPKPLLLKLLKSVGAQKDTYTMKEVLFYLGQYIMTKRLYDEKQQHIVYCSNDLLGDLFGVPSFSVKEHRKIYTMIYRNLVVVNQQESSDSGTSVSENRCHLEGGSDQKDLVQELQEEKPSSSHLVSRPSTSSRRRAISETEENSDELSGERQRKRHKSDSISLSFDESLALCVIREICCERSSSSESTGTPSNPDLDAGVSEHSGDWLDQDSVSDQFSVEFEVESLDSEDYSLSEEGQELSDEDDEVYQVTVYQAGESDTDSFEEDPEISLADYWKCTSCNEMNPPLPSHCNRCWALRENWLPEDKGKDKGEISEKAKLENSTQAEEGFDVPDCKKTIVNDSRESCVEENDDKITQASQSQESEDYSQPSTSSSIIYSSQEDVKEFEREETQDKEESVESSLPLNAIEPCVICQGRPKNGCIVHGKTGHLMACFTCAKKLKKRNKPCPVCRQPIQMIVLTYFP
# Method: (§3) MDM2 degradation is measured by western blot and immunofluorescence.
# (§4) Cells were seeded in 6-well plates (Sarsted) in complete DMEM medium as to obtain triplicates for each condition (500 000 cells/well). After 24 hours, the compounds were added to the cells. Then, 18 hours later cells were collected for western blotting or immunofluorescence. • Western Blot: Cells were collected in Laemmli buffer, boiled and analyzed in 8% acrylamide gel. • Immunofluorescence: Cancer cells were fixed with paraformaldehyde (PFA) 4% for 15 minutes then permeabilized for 15 minutes at RT with phosphate-buffered saline (PBS) Triton 0.1% and blocked with Phosphate buffered saline-[…] (PBS-BSA) 0.3% for 1 hour at RT before overnight incubation at 4° C. with an anti-mouse monoclonal antibody against MDM2 (MABE340 Millipore). Immunodetection was performed using an Alexa 488-conjugated anti-mouse IgG antibody (Thermo Fisher) for 45 minutes at RT. Cover glasses were mounted with Mowiol (Biovalley) and DAPI (Sigma) before analysis on a Zeiss apotome.
# Cytoplasmic-MDM2 = target: T2, Cytoplasmic-MDM2 (Homo sapiens, UniProt Q00987); experiment: MDM2 degradation by western blot and immunofluorescence, cytoplasmic MDM2 (Hpac/ZR75.1 cells, absence of C-MDM2); type: cell-based; conditions: Hpac/ZR75.1 (absence of C-MDM2), degradation efficacy; for Dmax: human
# T2 construct: endogenous in cells; host or cells: Hpac/ZR75.1
# T2 sequence (Q00987 whole entry): as above
# Method: as §3, §4
# liposarcoma cells IB111 = experiment: In vivo anti-tumor efficacy in nude mice engrafted with liposarcoma cells IB111; conditions: 20 mg/kg i.p. daily for 3 weeks, from tumor 100 mm^3
# Method: In order to support the in vitro results, in vivo evaluation of the anti-tumor efficacy was performed on compound (4) according to the present invention having evidenced the antitumoral activity in examples 9 and 10 above.
# 10 mice per group were engrafted with liposarcoma cells IB111. Mice were housed in a pathogen-free barrier facility in accordance with the regional ethics committee for animal [COMPOUND LEFT OUT] (n° CEEA-LR-12067). When tumor reached 100 mm^3, the compound of formula (I) was administered by intra peritoneal i.p. injection at the dose of 20 mg/kg daily for 3 weeks.
# IB111 cells = experiment: Cell survival, Sulforhodamine B assay (SRB assay), cancer cells exhibiting recruitment of MDM2 to chromatin; type: cell-based
# Method: as §1, §2
# MDM2-p53 interaction = conditions: WO2016/049453 and Wang et al. 2014; cited from earlier work
# MDM2 protein = conditions: WO2016/049453 and Wang et al. 2014; cited from earlier work
# [1] = tested on: p53 wild type, p53 mutant and p53 null cancer cells; conditions: cited from earlier work
Structure (SMILES),Dmax (Cytoplasmic-MDM2),Dmax (Chromatin-MDM2),efficacy on cancer cells not exhibiting recruitment of MDM2 to chromatin (cell survival) (Hpac/ZR75.1 cells),Chromatin-MDM2 degradation (Chromatin-MDM2),Cytoplasmic-MDM2 degradation (Cytoplasmic-MDM2),other results
"COc1ccc2[nH]c3c(-c4cccc5ccccc45)nccc3c2n1 [Compound 1, 2-methoxy-6-(naphthalen-1-yl)-5H-pyrrolo[3,2-b:5,4-c′]dipyridine]",–,–,not efficient,+++ (+++≥80%),–,–
"COc1ccc2[nH]c3c(-c4ccnc5nccnc45)nccc3c2n1 [Compound 3, 2-methoxy-6-(pyrido[2,3-b]pyrazin-8-yl)-5H-pyrrolo[3,2-b:5,4-c′]dipyridine]",< 25%,25 to 40%,–,–,–,–
"COc1ccc2[nH]c3c(-c4cccc5ccccc45)nccc3c2n1.Cl [Compound 4, 2-methoxy-6-(naphthalen-1-yl)-5H-pyrrolo[3,2-b:5,4-c′]dipyridine hydrochloride]",–,–,not efficient,+++ (+++≥80%),− (<25%: no degradation: indicated“−” in the table),tumor reduction (liposarcoma cells IB111): greater than 75%
"COc1ccc2[nH]c3c(-c4cccc5ccccc45)nccc3c2n1.O=C(O)/C=C/C(=O)O [Compound 10, 2-methoxy-6-(naphthalen-1-yl)-5H-pyrrolo[3,2-b:5,4-c′]dipyridine fumarate]",–,–,not efficient,+++ (+++≥80%),− (<25%: no degradation: indicated“−” in the table),–
"COc1ccc2[nH]c3c(-c4cccc5ccccc45)nccc3c2n1.O=C(O)CC(O)(CC(=O)O)C(=O)O [Compound 11, 2-methoxy-6-(naphthalen-1-yl)-5H-pyrrolo[3,2-b:5,4-c′]dipyridine 2-hydroxypropane-1,2,3-tricarboxylate]",< 25%,–,not efficient,+++ (+++≥80%),–,–
"COc1ccc2[nH]c3c(-c4cccc5ccccc45)nccc3c2n1.O=P(O)(O)O [Compound 12, 2-methoxy-6-(naphthalen-1-yl)-5H-pyrrolo[3,2-b:5,4-c′]dipyridine phosphate]",–,–,not efficient,–,− (<25%: no degradation: indicated“−” in the table),–
"COc1ccc2[nH]c3c(-c4cccc5ccccc45)nccc3c2n1 [Compound 13, 2-methoxy-6-(naphthalen-1-yl)-5H-pyrrolo[3,2-b:5,4-c′]dipyridine sulfate]",–,–,–,–,− (<25%: no degradation: indicated“−” in the table),Chromatin-MDM2 degradation (Chromatin-MDM2; sulfate): ++ (40%≤++<80%)
"COc1ccc2[nH]c3c(-c4cccc5c4CCCC5)nccc3c2n1.Cl [Compound 16, 2-methoxy-6-(5,6,7,8-tetrahydronaphthalen-1-yl)-5H-pyrrolo[3,2-b:5,4-c′]dipyridine hydrochloride]",–,–,not efficient,+++ (+++≥80%),− (<25%: no degradation: indicated“−” in the table),–
"COc1ccc2[nH]c3c(-c4ccc(F)c5ccccc45)nccc3c2n1.Cl [Compound 17, 6-(4-fluoronaphthalen-1-yl)-2-methoxy-5H-pyrrolo[3,2-b:5,4-c′]dipyridine hydrochloride]",–,–,–,–,− (<25%: no degradation: indicated“−” in the table),–
"Cl.Clc1ccc2[nH]c3c(-c4cccc5ccccc45)nccc3c2n1 [Compound 19, 2-chloro-6-(naphthalen-1-yl)-5H-pyrrolo[3,2-b:5,4-c′]dipyridine hydrochloride]",–,–,not efficient,++ (40%≤++<80%),− (<25%: no degradation: indicated“−” in the table),IC50 (IB111 cells): < 500 nM
"COc1ccc2[nH]c3c(-c4cccc5c(F)cccc45)nccc3c2n1.Cl [Compound 22, 6-(5-fluoronaphthalen-1-yl)-2-methoxy-5H-pyrrolo[3,2-b:5,4-c′]dipyridine hydrochloride]",–,–,–,+ (25%≤+<40%),− (<25%: no degradation: indicated“−” in the table),–
"Cl.c1ccc2c(-c3nccc4c3[nH]c3ccc(OC5CC5)nc34)cccc2c1 [Compound 25, 2-cyclopropoxy-6-(naphthalen-1-yl)-5H-pyrrolo[3,2-b:5,4-c′]dipyridine hydrochloride]",–,–,not efficient,+++ (+++≥80%),− (<25%: no degradation: indicated“−” in the table),–
COc1ccc2[nH]c3c(-c4cccc5ccccc45)nccc3c2c1 [SP-141],–,–,–,–,–,"inhibition of the MDM2-p53 interaction (MDM2-p53 interaction): inhibiting the MDM2-p53 interaction; binding to MDM2 protein (MDM2 protein): directly binding to MDM2 protein; anticancer activity [1]: able to exert anticancer activity in p53 wild type, p53 mutant and p53 null cancer cells"

# Further lines, with some results ahead:
Dmax (Cytoplasmic-MDM2),Dmax (Chromatin-MDM2),Structure (SMILES),efficacy on cancer cells not exhibiting recruitment of MDM2 to chromatin (cell survival) (Hpac/ZR75.1 cells),Chromatin-MDM2 degradation (Chromatin-MDM2),Cytoplasmic-MDM2 degradation (Cytoplasmic-MDM2),other results
< 25%,25 to 40%,"COc1ccc2[nH]c3c(-c4ccnc5ccccc45)nccc3c2n1 [Compound 6, 2-methoxy-6-(quinolin-4-yl)-5H-pyrrolo[3,2-b:5,4-c′]dipyridine]",–,–,–,–
< 25%,≥ 80%,"COc1ccc2[nH]c3c(-c4cccc5c4CCCC5)nccc3c2n1 [Compound 14, 2-methoxy-6-(5,6,7,8-tetrahydronaphthalen-1-yl)-5H-pyrrolo[3,2-b:5,4-c′]dipyridine]",not efficient,–,–,–
< 25%,40 to 80%,"COc1ccc2[nH]c3c(-c4ccc(F)c5ccccc45)nccc3c2n1 [Compound 15, 6-(4-fluoronaphthalen-1-yl)-2-methoxy-5H-pyrrolo[3,2-b:5,4-c′]dipyridine]",not efficient,–,–,–
< 25%,25 to 40%,"Clc1ccc2[nH]c3c(-c4cccc5ccccc45)nccc3c2n1 [Compound 18, 2-chloro-6-(naphthalen-1-yl)-5H-pyrrolo[3,2-b:5,4-c′]dipyridine]",–,–,–,–
< 25%,40 to 80%,"COc1ccc2[nH]c3c(-c4cc(F)cc5ccccc45)nccc3c2n1.Cl [Compound 20, 6-(3-fluoronaphthalen-1-yl)-2-methoxy-5H-pyrrolo[3,2-b:5,4-c′]dipyridine hydrochloride]",not efficient,–,–,IC50 (IB111 cells): < 500 nM
< 25%,25 to 40%,"COc1ccc2[nH]c3c(-c4cccc5c(F)cccc45)nccc3c2n1 [Compound 21, 6-(5-fluoronaphthalen-1-yl)-2-methoxy-5H-pyrrolo[3,2-b:5,4-c′]dipyridine]",–,–,–,–
< 25%,25 to 40%,"COc1ccc2[nH]c3c(-c4cccc5cccc(F)c45)nccc3c2n1 [Compound 23, 6-(8-fluoronaphthalen-1-yl)-2-methoxy-5H-pyrrolo[3,2-b:5,4-c′]dipyridine hydrochloride]",–,–,–,–
< 25%,≥ 80%,"c1ccc2c(-c3nccc4c3[nH]c3ccc(OC5CC5)nc34)cccc2c1 [Compound 24, 2-cyclopropoxy-6-(naphthalen-1-yl)-5H-pyrrolo[3,2-b:5,4-c′]dipyridine]",not efficient,–,–,IC50 (IB111 cells): < 500 nM
